Measured values published in US11214594B2, “Antimicrobial peptide having synergistic antibacterial effect with antibiotics on multidrug resistant bacteria, and use thereof” (priority 2016, dated 2022).
Converted amounts (≈) assume the structure as drawn. Where two headings read alike, the source gives them in different places. Where a SMILES comes first, the peptide text is derived from it.

Tests used:
[1] = test system: A. baumannii; assay: microbe, parasite or virus in culture; format: cell-based, Acinetobacter baumannii; conditions: for Antibiotic MIC, compound alone: no peptide; for MIC: Acinetobacter baumannii, read-out: Minimal inhibitory concentration MIC
Description: (§1) For the antibacterial activity, a minimal inhibitory concentration (MIC) of a peptide in which fungus bodies were not split in an MH medium with sufficient nutrients was measured.
(§2) Specifically, the strains described in the following [Table 2] were purchased and diluted with an MH medium such that the number of bacteria was 2×10^6 colony-forming units (CFUs), 100 μl of each of the diluted strains was aliquoted into a 96-well microtiter plate, and then 100 μl of a peptide solution diluted with the MH medium (solution diluted stepwise at 2: 1) was added to each well.

[2] = test system: A. baumannii; assay: MIC of antimicrobial peptide during combined treatment with antibiotic; format: cell-based, Acinetobacter baumannii
Description: Specifically, the strains described in [Table 2] were prepared and diluted with an MH medium such that the number of bacteria was 2×10^6 colony-forming units (CFUs) per 1 ml, 100 μl of the diluted strains was each aliquoted into a 96-well microtiter plate, and then 50 μl of a peptide solution diluted with the MH medium from the MIC value (solution diluted stepwise at 2: 1) was added to each well. Thereafter, the MIC value of each mixed solution was determined by diluting the antibiotic solution with the MH medium, adding 50 μl of the diluted solution to each well, and performing an experiment even under a reversed condition.

[3] = test system: E. coli; assay: microbe, parasite or virus in culture; format: cell-based, Escherichia coli
Description: as §1, §2

[4] = test system: MDREC 1229; assay: microbe, parasite or virus in culture; format: cell-based, Escherichia coli; conditions: for MIC: Escherichia coli, read-out: Minimal inhibitory concentration MIC; for Antibiotic MIC, compound alone: no peptide
Description: as §1, §2

[5] = test system: P. aeruginosa; assay: microbe, parasite or virus in culture; format: cell-based, Pseudomonas aeruginosa; conditions: Pseudomonas aeruginosa, read-out: Minimal inhibitory concentration MIC
Description: as §1, §2

[6] = test system: MDRAB 12035; assay: microbe, parasite or virus in culture; format: cell-based, Acinetobacter baumannii; conditions: for Antibiotic MIC, compound alone: MDRAB 12035, no peptide
Description: as §1, §2

[7] = test system: S. typhimurium; assay: microbe, parasite or virus in culture; format: cell-based, Salmonella typhimurium; conditions: Salmonella enterica, read-out: Minimal inhibitory concentration MIC
Description: as §1, §2

[8] = test system: B. subtilis; assay: microbe, parasite or virus in culture; format: cell-based, Bacillus subtilis; conditions: Bacillus subtilis, read-out: Minimal inhibitory concentration MIC
Description: as §1, §2

[9] = test system: S. epidermidis; assay: microbe, parasite or virus in culture; format: cell-based, Staphylococcus epidermidis; conditions: Staphylococcus epidermidis, read-out: Minimal inhibitory concentration MIC
Description: as §1, §2

[10] = test system: S. aureus; assay: microbe, parasite or virus in culture; format: cell-based, Staphylococcus aureus; conditions: Staphylococcus aureus, read-out: Minimal inhibitory concentration MIC
Description: as §1, §2

[11] = test system: E. coli; assay: MIC of antibiotic during combined treatment with antimicrobial peptide; format: cell-based, Escherichia coli; conditions: E. coli
Description: (§3) Thereafter, the MIC value of each mixed solution was determined by diluting the antibiotic solution with the MH medium, adding 50 μl of the diluted solution to each well, and performing an experiment even under a reversed condition.

[12] = test system: A. baumannii; assay: as above; format: cell-based, Acinetobacter baumannii; conditions: A. baumannii
Description: as §3

[13] = E. coli, compound alone (no peptide)
[14] = with Papiliocin 1 μg/ml (Conc./MIC 1/8)
[15] = with Papiliocin 2 μg/ml (Conc./MIC 1/4)
[16] = with Papiliocin 4 μg/ml (Conc./MIC 1/2)
[17] = with Papiliocin 8 μg/ml (Conc./MIC 1)
[18] = with PapMA-1 at 16 μg/ml (1/4 of peptide MIC)
[19] = with PapMA-2 at 16 μg/ml (1/4 of peptide MIC)

CC[C@H](C)[C@H](NC(=O)[C@H](CCCCN)NC(=O)[C@H](Cc1c[nH]c2ccccc12)NC(=O)[C@@H](N)CCCNC(=N)N)C(=O)N[C@@H](Cc1ccccc1)C(=O)N[C@@H](CCCCN)C(=O)N[C@@H](CCCCN)C(=O)N[C@H](C(=O)N1CCC[C@H]1C(=O)N[C@@H](CCCCN)C(=O)N[C@@H](CC(C)C)C(=O)N[C@@H](CC(C)C)C(=O)N[C@@H](Cc1c[nH]cn1)C(=O)N[C@@H](CCC(=O)O)C(=O)N[C@@H](Cc1ccccc1)C(=O)N[C@@H](CCCCN)C(=O)N[C@@H](CCCCN)C(=O)N[C@@H](Cc1ccccc1)C(N)=O)[C@@H](C)CC [Pap-MA-12] (H-RWKIFKKIPKLLHEFKKF-NH2; N-terminus assumed)
Peptide MIC, peptide alone [1]: 8 µg/mL
Peptide MIC during treatment with antibiotic ([2]; erythromycin 4 μg/ml (Conc./MIC 1/8)): 4 µg/mL
Peptide MIC during treatment with antibiotic ([2]; erythromycin 8 μg/ml (Conc./MIC 1/4)): 2 µg/mL
Peptide MIC during treatment with antibiotic ([2]; erythromycin 16 μg/ml (Conc./MIC 1/2)): 1 µg/mL
Peptide MIC during treatment with antibiotic ([2]; erythromycin 32 μg/ml (Conc./MIC 1)): 0 µg/mL
Peptide MIC during treatment with antibiotic ([2]; linezolid 32 μg/ml (Conc./MIC 1/8)): 2 µg/mL
Peptide MIC during treatment with antibiotic ([2]; linezolid 64 μg/ml (Conc./MIC 1/4)): 2 µg/mL
Peptide MIC during treatment with antibiotic ([2]; linezolid […] (Conc./MIC 1)): 0 µg/mL
Peptide MIC during treatment with antibiotic ([2]; linezolid […] (Conc./MIC 1/2)): 1 µg/mL
Peptide MIC during treatment with antibiotic ([2]; vancomycin 512 μg/ml (Conc./MIC 1/2)): 0.25 µg/mL
Peptide MIC during treatment with antibiotic ([2]; vancomycin 1024 μg/ml (Conc./MIC 1)): 0 µg/mL
Peptide MIC during treatment with antibiotic ([2]; vancomycin […] (Conc./MIC 1/4)): 0.25 µg/mL
Peptide MIC during treatment with antibiotic ([2]; vancomycin […] (Conc./MIC 1/8)): 2 µg/mL

CN[C@H](CC(C)C)C(=O)N[C@H]1C(=O)N[C@@H](CC(N)=O)C(=O)N[C@H]2C(=O)N[C@H]3C(=O)N[C@H](C(=O)N[C@H](C(=O)O)c4cc(O)cc(O)c4-c4cc3ccc4O)[C@H](O)c3ccc(c(Cl)c3)Oc3cc2cc(c3O[C@@H]2O[C@H](CO)[C@@H](O)[C@H](O)[C@H]2O[C@H]2C[C@](C)(N)[C@H](O)[C@H](C)O2)Oc2ccc(cc2Cl)[C@H]1O [Vancomycin, vancomycin, reference compound]
Antibiotic MIC, Vancomycin [3, 13]: 1024 µg/mL
MIC ([3]; Escherichia coli, 16 h, read-out: Minimal inhibitory concentration MIC): 1020 µg/mL (≈ 707 µM)
MIC [4]: > 1020 µg/mL
Antibiotic MIC, compound alone ([4]; MDREC 1229): >1024 µg/mL
MIC [5]: > 1020 µg/mL
Antibiotic MIC, compound alone ([1]; A. baumannii): 1024 µg/mL
MIC [1]: 1020 µg/mL (≈ 707 µM)
MIC ([6]; Acinetobacter baumannii, read-out: Minimal inhibitory concentration MIC): > 1020 µg/mL
Antibiotic MIC, compound alone [6]: >1024 µg/mL
MIC ([7]; TYPHIMURIUM): 512 µg/mL (≈ 353 µM)
MIC [8]: 1 µg/mL (≈ 0.69 µM)
MIC [9]: 1 µg/mL (≈ 0.69 µM)
MIC [10]: 1 µg/mL (≈ 0.69 µM)
MIC Concentration of antibiotic [11, 14]: 512 µg/mL
MIC Concentration of antibiotic [11, 15]: 256 µg/mL
MIC Concentration of antibiotic [11, 16]: 256 µg/mL
MIC Concentration of antibiotic [11, 17]: 0 µg/mL
MIC of antibiotic administered in combination with peptide ([12]; with PapMA-7 at 8 μg/ml): 2 µg/mL
MIC of antibiotic in combination as fraction of the MIC of the antibiotic alone ([12]; with PapMA-7 at 8 μg/ml): 1/512
MIC Concentration of antibiotic [12, 14]: 512 µg/mL
MIC Concentration of antibiotic [12, 15]: 256 µg/mL
MIC Concentration of antibiotic [12, 16]: 256 µg/mL
MIC Concentration of antibiotic [12, 17]: 0 µg/mL

CC[C@H]1OC(=O)[C@H](C)[C@@H](O[C@H]2C[C@@](C)(OC)[C@@H](O)[C@H](C)O2)[C@H](C)[C@@H](O[C@@H]2O[C@H](C)C[C@H](N(C)C)[C@H]2O)[C@](C)(O)C[C@@H](C)C(=O)[C@H](C)[C@@H](O)[C@]1(C)O [Erythromycin, erythromycin, reference compound]
Antibiotic MIC, compound alone ([1]; A. baumannii): 32 µg/mL
MIC ([1]; A. baumannii, agent alone): 32 µg/mL (≈ 43.6 µM)
Antibiotic MIC, compound alone [6]: 32 µg/mL
MIC ([7]; S. typhimurium, agent alone): 64 µg/mL (≈ 87.2 µM)
MIC ([8]; B. subtilis, agent alone): 0.25 µg/mL (≈ 0.341 µM)
MIC ([9]; S. epidermidis, agent alone): 1 µg/mL (≈ 1.36 µM)
MIC of antibiotic in mixture as fraction of the MIC of the antibiotic alone ([11]; with PapMA-1 at 16 μg/ml): 1/64
MIC value of antibiotic mixed with peptide [11, 18]: 2 µg/mL
MIC value of antibiotic mixed with peptide [11, 19]: 0.5 µg/mL
MIC of antibiotic in mixture as fraction of the MIC of the antibiotic alone ([11]; with PapMA-7 at 16 μg/ml): 1/512
MIC Concentration of antibiotic [11, 14]: 64 µg/mL
MIC Concentration of antibiotic [11, 15]: 64 µg/mL
MIC Concentration of antibiotic [11, 16]: 64 µg/mL
MIC Concentration of antibiotic [11, 17]: 0 µg/mL
MIC of antibiotic administered in combination with peptide ([12]; with PapMA-1 at 8 μg/ml): 0.5 µg/mL
MIC of antibiotic in combination as fraction of the MIC of the antibiotic alone ([12]; with PapMA-1 at 8 μg/ml): 1/64
MIC Concentration of antibiotic [12, 14]: 32 µg/mL
MIC Concentration of antibiotic [12, 15]: 16 µg/mL
MIC Concentration of antibiotic [12, 16]: 16 µg/mL
MIC Concentration of antibiotic [12, 17]: 0 µg/mL

CC(=O)NC[C@H]1CN(c2ccc(N3CCOCC3)c(F)c2)C(=O)O1 [Linezolid, linezolid, reference compound]
Antibiotic MIC, Linezolid [3, 13]: 256 µg/mL
MIC ([4]; MDREC 1229, agent alone): 512 µg/mL (≈ 1520 µM)
Antibiotic MIC, compound alone ([4]; MDREC 1229): 512 µg/mL
MIC ([5]; P. aeruginosa, agent alone): > 1020 µg/mL
Antibiotic MIC, compound alone ([1]; A. baumannii): 256 µg/mL
Antibiotic MIC, compound alone [6]: 512 µg/mL
MIC ([7]; S. typhimurium, agent alone): 256 µg/mL (≈ 759 µM)
MIC ([8]; B. subtilis, agent alone): 1 µg/mL (≈ 2.96 µM)
MIC ([9]; S. epidermidis, agent alone): 1 µg/mL (≈ 2.96 µM)
MIC of antibiotic in mixture as fraction of the MIC of the antibiotic alone ([11]; with PapMA-1 at 16 μg/ml): 1/16
MIC value of antibiotic mixed with peptide [11, 18]: 16 µg/mL
MIC of antibiotic in mixture as fraction of the MIC of the antibiotic alone ([11]; with PapMA-2 at 16 μg/ml): 1/32
MIC value of antibiotic mixed with peptide [11, 19]: 8 µg/mL
MIC of antibiotic in mixture as fraction of the MIC of the antibiotic alone ([11]; with PapMA-7 at 16 μg/ml): 1/256
MIC value of antibiotic mixed with peptide ([11]; with PapMA-7 at 16 μg/ml (1/2 of peptide MIC)): 1 µg/mL
MIC Concentration of antibiotic [11, 14]: 128 µg/mL
MIC Concentration of antibiotic [11, 15]: 128 µg/mL
MIC Concentration of antibiotic [11, 16]: 128 µg/mL
MIC Concentration of antibiotic [11, 17]: 0 µg/mL
MIC of antibiotic administered in combination with peptide ([12]; with PapMA-1 at 8 μg/ml): 8 µg/mL
MIC of antibiotic in combination as fraction of the MIC of the antibiotic alone ([12]; with PapMA-1 at 8 μg/ml): 1/32
MIC of antibiotic administered in combination with peptide ([12]; with PapMA-7 at 8 μg/ml): 1 µg/mL
MIC of antibiotic in combination as fraction of the MIC of the antibiotic alone ([12]; with PapMA-7 at 8 μg/ml): 1/256
MIC Concentration of antibiotic [12, 14]: 128 µg/mL
MIC Concentration of antibiotic [12, 15]: 64 µg/mL
MIC Concentration of antibiotic [12, 16]: 64 µg/mL
MIC Concentration of antibiotic [12, 17]: 0 µg/mL
